By CC50 is commonly meant the concentration at which the toxic effect on the cells reaches its halfway point. By logP is commonly meant a log measure of how a compound divides between an organic and an aqueous phase.

The test system of one data set is MT-2 cells. As to the kind of experiment: Cytotoxicity in MT-2 cells (concentration to kill 50% of the cells). It is filed as cell-based.
A further data set concerns HIV-1(IIIB). As to the kind of experiment: Antiviral activity against HIV-1(IIIB) in MT-2 cells (tissue culture). It is filed as cell-based. The conditions noted are these: for SI - Selectivity Index(CC50/IC50): CC50/IC50, HIV-1, MT-2 cells; for IC50: Human immunodeficiency virus 1, MT2, HIV-1(IIIB), MT-2 cells, read-out: IC50 (50% inhibitory concentration).
The nature of data set [1]: Chemical (solution) stability of PMPA carbonates. It counts as physicochemical. The conditions noted are these: compared with preferred t 1/2 at pH 7.4 (> 2-12 hours) and at pH 2.0 (> 1, 10 or 100 hours). Here is the method:
The solution stability of PMPA carbonates was studied at pH 7.4 at 37°C in 10 mM buffer (NaH2PO4 and Na2HPO4) with the total ionic strength adjusted to 0.15 M with KCl. The assays were performed by adding 200 µL of a PMPA carbonate stock solution (about 1 mg/mL in DMSO) to 10 mL of pre-equilibrated buffer at 37°C. Samples were removed at specific times points and analyzed by HPLC. The chemical t 1/2 is expressed in terms of the number of hours required to hydrolyze 50% of the carbonate at the specified pH.

The nature of data set [2]: Cytotoxicity in MT-2 cells (concentration to kill 50% of the cells). It counts as cell-based. The conditions noted are these: human.
Source text: (§1) PMPA (9-[(R)-2-(phosphonomethoxy)propyl]adenine) and PMPA carbonates were examined to determine their activity against HIV-1.

Source text for HIV-1(IIIB): as §1
Source text for physchem: as §1

Take `CCOC(=O)OCOP(=O)(CO[C@H](C)Cn1cnc2c(N)ncnc21)OCOC(=O)OCC` [5a]: the CC50 in the data set with MT-2 cells was 40000 nM. In the data set with HIV-1(IIIB), the “SI - Selectivity Index(CC50/IC50)” value is on record as 20000 and the IC50 came to 2 nM.

For the compound `CC(C)COC(=O)OCOP(=O)(CO[C@H](C)Cn1cnc2c(N)ncnc21)OCOC(=O)OCC(C)C` [5c], in the data set with MT-2 cells, the cytotoxic concentration (CC50) came to 30000 nM. In the data set with HIV-1(IIIB), the “SI - Selectivity Index(CC50/IC50)” value was determined as 30000 and the IC50 is less than 1 nM.

In the data set on MT-2 cells, `C[C@H](Cn1cnc2c(N)ncnc21)OCP(=O)(OCOC(=O)OC(C)(C)C)OCOC(=O)OC(C)(C)C` [5d] had a 50% cytotoxic concentration (CC50) of 10000 nM. In addition, in data set [1], the “t 1/2 (chemical stability)” value is “less stable than these parameters”. In the data set with HIV-1(IIIB), the “SI - Selectivity Index(CC50/IC50)” value was 50 and the IC50 was found to be 200 nM. In the data set with HIV-1(IIIB) (anti-HIV-1 activity relative to PMPA), the “increased potency / activity compared to PMPA” value came to 2.5 fold.

Regarding `C[C@H](Cn1cnc2c(N)ncnc21)OCP(=O)(OCOC(=O)OCC(C)(C)C)OCOC(=O)OCC(C)(C)C` [5e], the cytotoxic concentration (CC50) in the data set with MT-2 cells is 3000 nM. Also, in the data set with HIV-1(IIIB), the “SI - Selectivity Index(CC50/IC50)” value is on record as 3000 and the IC50 was less than 1 nM.

In the data set on MT-2 cells, `CC(C)OC(=O)OCOP(=O)(CO[C@H](C)Cn1cnc2c(N)ncnc21)OCOC(=O)OC(C)C` [5f] showed a CC50 of 50000 nM. Besides, in the data set on HIV-1(IIIB), the “SI - Selectivity Index(CC50/IC50)” value is reported as 16600 and the IC50 was determined as 3 nM.

`CCC(CC)OC(=O)OCOP(=O)(CO[C@H](C)Cn1cnc2c(N)ncnc21)OCOC(=O)OC(CC)CC` [5g] came in with a cytotoxic concentration (CC50) in the data set on MT-2 cells of 40000 nM. Also, in the data set on HIV-1(IIIB), the “SI - Selectivity Index(CC50/IC50)” value came to 40000 and the IC50 is less than 1 nM.

In the data set “physchem”, `C[C@H](Cn1cnc2c(N)ncnc21)OCP(=O)(O)O` [compound 2, 9-[(R)-2-(phosphonomethoxy)propyl]adenine, reference compound] registered a logP of -2.5. The compound further displayed a CC50 in data set [2] of 250000 nM. Besides, in the data set with HIV-1(IIIB), the “SI - Selectivity Index(CC50/IC50)” value amounted to 500 and the IC50 was found to be 500 nM.

The values are drawn from patent publication EP0915894B1, “NUCLEOTIDE ANALOGS” (GILEAD SCIENCES, INC., priority 1996, dated 1998).
